For assay [1], the system named is C. caviae infected HeLa cells. The experiment in a line: Host cell death (condensed nuclei) in C. caviae infected cells. The settings on record: peptide-treated HeLa cells; listed as EQ ID NO:7. It counts as cell-based. The method, then:
FIG. 12 depicts (A) low-magnification view of C. trachomatis LGV-L2 infected HeLa monolayers (30 h) treated with SEQ ID NO:7 or SEQ ID NO:11 peptides. (B) The frequency of condensed nuclei in treated cells is dependent on peptide concentration and Chlamydia infection. (C-D) Toxicity of CPAF inhibitors to Chlamydia-infected cells is observed in non-myeloid cells including human embryonic kidney cells HEK293 (C) and mouse embryo fibroblasts (D). […] (F-G) Cell death induced by anti-CPAF peptides requires Caspase-1 activation. HeLa cells infected with C. muridarum were treated with Ac-YVAD-CMK at 2 hpi, SEQ ID NO:7 peptide or SEQ ID NO:11 control peptide at 12 hpi and the percentage of infected cells with condensed nuclei was assessed at 48 hpi (F). Mouse lung fibroblasts (MLF) derived from congenic WT, ICE1^−/− and ASC^−/− animals were infected with C. muridarum and treated with the indicated concentrations of anti peptides 12 hpi. The percentage of infected cells with condensed nuclei was assessed at 48 hpi (G). LGV-L2 inclusions were immunostained with anti-L2 antisera and C. muridarum and C. caviae inclusions were immunostained with an anti-chlamydial LPS monoclonal antibody. Cell death in infected and uninfected cells treated with CPAF inhibitory peptides or control peptides was determined by counting the number of condensed nuclei of ˜1000 cells.

Another assay deals with CPAF (Chlamydia trachomatis serovar D, UniProt O84866). The experiment in a line: HPLC-based CPAF inhibition assay with Abz-tagged model substrate (SEQ ID NO:9). In kind it is biochemical, C. trachomatis. The arrangement: 6xHis; made in house; host or cells: E. coli BL21 (DE3), plasmid pET30b-CPAF. As to the method: FIG. 1 depicts the results of HPLC-based CPAF inhibition assays using a model CPAF substrate (SEQ ID NO:9) to compare inhibition of CPAF protease activity by SEQ ID NO:7, SEQ ID NO:2, and lactacystin. HPLC-based assays were performed in a final volume of 100 μL containing assay buffer, CPAF (62.5 nM), substrate 1 (0.5 mM), and varying concentrations of inhibitor (0-240 μM).
HPLC-based assays comprised an Abz-tagged model CPAF substrate (SEQ ID NO:9) and were performed in a final volume of 100 μL containing 150 mM NaCl, 50 mM Tris pH 7.50, purified CPAF (62.5 nM), fluorescent-tagged model CPAF substrate (0.5 mM), and varying concentrations of each candidate compound (0-240 μM). IC50 values were determined by pre-incubating CPAF with varying concentrations of candidate compound for 5 min at room temperature prior to initiation of the reaction via the addition of model CPAF substrate. Reactions were allowed to proceed for 90 seconds at 25° C., followed by removal of 80 μL aliquots and quenching by the addition of 1.2 M HCl (40 μL). Data were converted to percent activity relative to a control reaction without candidate compound and fit to the following equation using GraFit v6.0, where [I] is the concentration of candidate compound and s is a slope factor: […]

Assay [2] concerns Chlamydia-infected HeLa cells. The experiment in a line: Inclusion integrity and vimentin cage by immunofluorescence and TEM. It counts as cell-based, C. trachomatis. The conditions noted are these: for Vimentin re-organization / cage around the inclusion: infected HeLa cells treated with peptide. As to the method:
FIG. 9 depicts (A) CPAF inhibitory peptides block the generation of Chlamydia infectious particles. L2-infected HeLa cells were treated at 12 hpi with increasing concentration of peptides. EBs were harvested at 30 hpi and inclusion-forming units (IFU) were quantified on fresh cell monolayers. (B-D) CPAF activity is required to maintain inclusion integrity. The integrity of the inclusion was determined by assessing the immunolocalization of the inclusion membrane marker IncA (red) and Chlamydia (green) (B) and by transmission electron microscopy (C). […] (D) The percentage of vimentin-positive inclusions was determined by IF in infected cells treated with SEQ ID NO:7 and SEQ ID NO:11 (12 hpi) peptides at 24 hpi. (E) Activation of inflammatory cytokines upon inhibition of CPAF activity. Levels of IL-8 supernatants from Chlamydia infected cells treated with peptides as in (B-D) were determined at 24 hpi by ELISA.
FIG. 19 depicts HeLa cells infected with C. trachomatis L2, treated with SEQ ID NO:11 and SEQ ID NO:7, and harvested at 30 hpi. (A) Immunofluorescence microscopy via staining with an anti-vimentin antibody (“vimentin”) and an anti-Chlamydia L2 antibody (“L2”). […] (B) Cells were lysed in the presence of protease inhibitors, resolved by SDS-PAGE, and subjected to immunoblot analysis. Vimentin, RpoD (bacterial loading control), and GAPDH (host loading control) were visualized with substrate-specific antibodies).
For routine indirect immunofluorescence, HeLa cells were grown on glass coverslips and infected with Chlamydia at an MOI of 1. At the indicated times post-infection, cells were fixed with cold 3% formaldehyde, permeabilized with 0.1% Tx-100, blocked in 2% bovine serum albumin (BSA), and incubated with primary antibody followed by secondary fluorophore-conjugated anti-rabbit or anti-mouse IgG (available from Molecular Probes). Host and Chlamydial DNA were stained with 1 μM Hoechst (available from Invitrogen). […]

The test system of a further assay is C. muridarum. Kind of assay: C. muridarum growth in HeLa cells (recovered IFUs). In kind it is cell-based. The settings on record: infected HeLa cells, recovered IFUs. The method, then: Cells were infected with an MOI of 1 and treated with CPAF inhibitor (SEQ ID NO:7) or control (SEQ ID NO:11) peptides at 12 hpi, fixed at 24 hpi and analyzed by IF with anti-L2 polyclonal antisera. Inclusion size was determined by measuring the inclusion diameter in μm by confocal microscopy of 50 infected cells. The number of cells with fragmented inclusions was determined by counting the number of infected cells out of 50 with more than one inclusion. (C) Sequence alignment and % sequence identify of full length CPAF and predicted inhibitory peptide sequence between C. trachomatis serovar LGV-L2, Chlamydia muridarum, and Chlamydophila caviae was determined using Geneious software (available at the Geneious website). […] GPIC or C. muridarum infected whole cell protein lysate was preincubated with SEQ ID NO:7 peptide or SEQ ID NO:11 control peptide, mixed with GST-IncC at 37° C., resolved by SDS-PAGE and stained with Coomassie blue. […] Inhibition of C. muridarum (E) and C. ceviae (F) growth was determined by counting the number of recovered IFUs. […] Inclusions were detected by IF with anti-LGV-L2 (A, B, E) antisera or anti-chlamydial LPS (F) monoclonal antibodies, and host nuclei sere detected by staining.

“Also recorded” adds a separate entry of the source. Where no end group is shown, it is not given here.

CPAF, sequence (O84866 276-601): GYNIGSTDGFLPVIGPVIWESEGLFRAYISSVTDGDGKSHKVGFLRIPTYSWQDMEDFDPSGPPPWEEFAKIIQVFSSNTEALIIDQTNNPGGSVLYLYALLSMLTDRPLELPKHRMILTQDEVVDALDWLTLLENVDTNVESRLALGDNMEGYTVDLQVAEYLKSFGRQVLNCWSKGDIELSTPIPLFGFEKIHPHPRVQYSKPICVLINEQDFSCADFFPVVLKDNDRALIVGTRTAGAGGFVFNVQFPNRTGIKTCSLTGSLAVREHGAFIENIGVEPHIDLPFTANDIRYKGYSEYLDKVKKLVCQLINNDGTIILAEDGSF
CPAF, sequence (O84866 1-234, added parts left off): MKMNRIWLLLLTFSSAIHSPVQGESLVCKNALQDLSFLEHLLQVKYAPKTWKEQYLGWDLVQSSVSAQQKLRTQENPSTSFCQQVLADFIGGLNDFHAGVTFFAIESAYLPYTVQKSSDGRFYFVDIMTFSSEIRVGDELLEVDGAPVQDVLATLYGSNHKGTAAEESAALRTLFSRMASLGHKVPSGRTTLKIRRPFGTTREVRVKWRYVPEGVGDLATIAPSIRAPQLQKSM

For “SLFYSPMVPHFWAELRNHYATSGLKRRRRRRRRR-NH2 [SEQ ID NO:7]”, in assay [1], the “Condensed nuclei / cell death in C. caviae infected cells” value is listed as “do not cause cell death”. At CPAF (CPAF 62.5 nM, substrate SEQ ID NO:9 0.5 mM, inhibitor 0-240 μM), this substance displayed an IC50 of 50 ± 7 nM. The “CPAF inhibition relative to SEQ ID NO:2” value on CPAF (HPLC-based assay, greater than SEQ ID NO:2) is “about 30 fold”. The “CPAF inhibition relative to lactacystin” value on CPAF (HPLC-based assay, greater than lactacystin) is reported as “about 200 fold”. For the same substance, the results for the “Vimentin re-organization / cage around the inclusion” value in assay [2] and in assay [2] (listed as peptide 4) were “loss of vimentin re-organization around the inclusion; also recorded: increased disorder in the position of the vimentin cage” and “loss of the vimentin cage”, respectively. The “Inclusion structure integrity (IncA, Cap1 localisation)” value in assay [2] (prolonged treatment (>8 h)) is listed as “collapse of the inclusion structure”. In the assay on C. muridarum, the C. muridarum replication result is reported as “blocked C. muridarum replication; also recorded: impairs growth in C. muridarum”.

A word on the IC50: it is the concentration that gives 50% inhibition.
